From ChEMBL document CHEMBL5252515, “Discovery of 6-Amino-2-{[(1S)-1-methylbutyl]oxy}-9-[5-(1-piperidinyl)pentyl]-7,9-dihydro-8H-purin-8-one (GSK2245035), a Highly Potent and Selective Intranasal Toll-Like Receptor 7 Agonist for the Treatment of Asthma” (J Med Chem, 2016)

Legend:
[1] = test system: PBMC; assay: Immunomodulatory activity in human PBMC assessed as reduction in timothy grass induced IL-5 level after 6 days; type: functional, cell-based; settings: dose 0.01-10000 nM, time 6.0 day
[2] = biological target: T1, Toll-like receptor 7 (Homo sapiens, UniProt Q9NYK1); assay: Agonist activity at TLR7 in human whole blood assessed as induction of IFNalpha production after 20 hrs by electrochemiluminescence assay; type: tissue-based
T1 sequence (Q9NYK1 whole entry): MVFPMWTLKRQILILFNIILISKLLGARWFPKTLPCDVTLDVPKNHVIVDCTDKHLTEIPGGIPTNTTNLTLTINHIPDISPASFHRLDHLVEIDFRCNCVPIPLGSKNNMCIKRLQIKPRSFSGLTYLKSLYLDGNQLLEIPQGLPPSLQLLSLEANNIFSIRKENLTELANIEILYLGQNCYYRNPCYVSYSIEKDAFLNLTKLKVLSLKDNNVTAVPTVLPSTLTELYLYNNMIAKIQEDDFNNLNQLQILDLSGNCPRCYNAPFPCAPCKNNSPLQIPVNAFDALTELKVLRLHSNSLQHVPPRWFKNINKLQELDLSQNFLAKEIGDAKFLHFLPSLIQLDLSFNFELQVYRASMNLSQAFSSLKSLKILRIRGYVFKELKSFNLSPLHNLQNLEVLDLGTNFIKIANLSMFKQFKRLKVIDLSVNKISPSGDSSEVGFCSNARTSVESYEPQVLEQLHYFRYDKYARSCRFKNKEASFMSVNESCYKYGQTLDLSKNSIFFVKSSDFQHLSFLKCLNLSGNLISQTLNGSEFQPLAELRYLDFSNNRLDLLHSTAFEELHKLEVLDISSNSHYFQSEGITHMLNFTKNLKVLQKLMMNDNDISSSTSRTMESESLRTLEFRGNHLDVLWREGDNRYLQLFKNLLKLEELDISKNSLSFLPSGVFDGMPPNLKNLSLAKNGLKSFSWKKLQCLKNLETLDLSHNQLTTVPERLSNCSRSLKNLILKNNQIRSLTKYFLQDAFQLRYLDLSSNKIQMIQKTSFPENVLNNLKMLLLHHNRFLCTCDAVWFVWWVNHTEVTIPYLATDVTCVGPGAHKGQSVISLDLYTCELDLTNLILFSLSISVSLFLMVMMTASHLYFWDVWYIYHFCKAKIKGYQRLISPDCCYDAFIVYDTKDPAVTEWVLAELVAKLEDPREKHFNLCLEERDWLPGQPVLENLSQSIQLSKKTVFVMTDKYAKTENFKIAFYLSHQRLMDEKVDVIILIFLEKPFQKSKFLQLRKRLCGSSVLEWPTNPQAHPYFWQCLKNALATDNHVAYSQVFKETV

[3] = biological target: T2, Toll-like receptor 7 (Macaca fascicularis) (UniProt B3Y652); assay: In vivo target occupancy at TLR7 in cynomolgus monkey assessed as fold increase in CXCL10 mRNA expression in nasal scrape at 3 ng/kg administered intranasally incubated for 24 hrs by TaqMan analysis (reference value: 1.6); type: functional
T2 sequence (whole entry): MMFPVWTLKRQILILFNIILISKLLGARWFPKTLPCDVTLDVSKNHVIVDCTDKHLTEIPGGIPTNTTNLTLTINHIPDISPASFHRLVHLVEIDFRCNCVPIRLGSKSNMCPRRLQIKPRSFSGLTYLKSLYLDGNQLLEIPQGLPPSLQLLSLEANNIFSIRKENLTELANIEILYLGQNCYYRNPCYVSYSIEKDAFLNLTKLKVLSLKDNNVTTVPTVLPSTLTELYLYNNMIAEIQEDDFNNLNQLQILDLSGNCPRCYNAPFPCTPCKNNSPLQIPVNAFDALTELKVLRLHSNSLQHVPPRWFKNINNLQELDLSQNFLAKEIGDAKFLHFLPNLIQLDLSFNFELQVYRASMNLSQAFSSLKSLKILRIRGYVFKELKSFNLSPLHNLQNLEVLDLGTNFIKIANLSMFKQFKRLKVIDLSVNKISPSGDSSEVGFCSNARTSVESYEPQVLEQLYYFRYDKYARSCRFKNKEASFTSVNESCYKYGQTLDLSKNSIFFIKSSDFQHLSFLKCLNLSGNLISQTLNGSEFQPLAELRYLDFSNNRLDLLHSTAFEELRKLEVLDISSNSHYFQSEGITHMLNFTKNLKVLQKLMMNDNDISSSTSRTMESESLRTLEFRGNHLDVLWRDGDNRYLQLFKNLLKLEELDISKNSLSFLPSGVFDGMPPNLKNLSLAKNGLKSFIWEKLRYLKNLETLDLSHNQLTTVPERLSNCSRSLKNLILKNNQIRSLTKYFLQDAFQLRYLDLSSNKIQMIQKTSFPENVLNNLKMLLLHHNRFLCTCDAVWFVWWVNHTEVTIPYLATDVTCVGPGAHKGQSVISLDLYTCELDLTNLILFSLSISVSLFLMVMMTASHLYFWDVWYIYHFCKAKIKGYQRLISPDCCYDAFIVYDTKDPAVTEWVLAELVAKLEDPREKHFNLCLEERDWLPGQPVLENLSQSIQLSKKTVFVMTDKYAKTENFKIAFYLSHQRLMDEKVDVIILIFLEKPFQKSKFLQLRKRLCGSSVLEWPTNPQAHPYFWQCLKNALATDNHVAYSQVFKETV

[4] = test system: PBMC; assay: Immunomodulatory activity in human PBMC assessed as reduction in house dust mite induced IL-5 level after 6 days; type: functional, cell-based; settings: dose 0.01-10000 nM, time 6.0 day
[5] = Oral bioavailability in rat; type: ADME, organism-based; settings: in vivo
[6] = biological target: T2, Toll-like receptor 7 (Macaca fascicularis); assay: In vivo target occupancy at TLR7 in cynomolgus monkey assessed as fold increase in OAS1 mRNA expression in nasal scrape at 3 ng/kg administered intranasally incubated for 24 hrs by TaqMan analysis (reference value: 1.2); type: functional

CCC[C@H](C)Oc1nc(N)c2[nH]c(=O)n(CCCCCN3CCCCC3)c2n1 [GSK-2245035]
Activity [1]: Dose-Dependent Effect | EC50 [2]: 0.891 nM | fold change (FC) [3]: 230 | Activity [4]: Dose-Dependent Effect | bioavailability [5]: 1% | fold change (FC) [6]: 38.9
